Laboratory results reported in PubChem BioAssay (NCI).
Several values for one entry are separate records, joined by “and”; a condition that tells them apart may be missing. Equal values may be shown once.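 Values below derive from 48-hour exposures of cells grown in 96-well plates, with endpoints linearly interpolated between the two concentrations bracketing the appropriate inhibition level. GI50 = concentration required for 50% inhibition of growth. TGI denotes the concentration required for complete inhibition of growth.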

Experiments:
Assay in all cases: NCI anticancer screen, dose series, 48 h
[1] = tested on: DU-145 prostate
[2] = tested on: RXF 393 renal
[3] = tested on: MOLT-4 leukemia
[4] = tested on: SF-295 CNS
[5] = tested on: TK-10 renal
[6] = tested on: SW-620 colon
[7] = tested on: MDA-MB-231 breast
[8] = tested on: NCI-H23 lung
[9] = tested on: MDA-MB-435
[10] = tested on: SNB-75 CNS

Row | SMILES | GI50 [1] [µM] | TGI [1] [µM] | GI50 [2] [µM] | TGI [2] | GI50 [3] [µM] | TGI [3] [µM] | GI50 [4] [µM] | TGI [4] [µM] | GI50 [5] [µM] | TGI [5] | GI50 [6] [µM] | TGI [6] | GI50 [7] [µM] | TGI [7] [µM] | GI50 [8] [µM] | TGI [8] | GI50 [9] [µM] | TGI [9] [µM] | TGI [10] [µM] | GI50 [10] [µM]
1 | COc1ccc(C(=O)CC(Cl)=C(Cl)Cl)cc1 | 31.5 | > 100 | 32 | 97.1 µM | 19.7 | 64.2 | 59.9 | > 100 | 23.9 | 59.9 µM | 33.5 | > 100 µM | 33.1 | > 100 | 23.3 | 47.1 µM | 24.8 | 62.7 |  | 
2 | COc1cc2c(c(OC)c1OC)-c1c(c3ccc([N+](=O)[O-])cc3c(=O)n1CCCN=[N+]=[N-])C2=O | 71.3 | > 100 | 4.81 | 47.3 µM | > 100 | > 100 | 18.5 | > 100 | 13.1 | 33.1 µM | 33.6 | > 100 µM | 19.1 | 56.3 | 15.2 | 43.6 µM | > 100 | > 100 |  | 
3 | Cc1ccc(S(=O)(=O)c2ccccn2)cc1 |  |  |  | > 100 µM |  | > 100 |  | > 100 |  | > 100 µM |  | > 100 µM |  |  |  | > 100 µM |  |  | > 100 | 
4 | CC1CCCC2(O1)OC1CC(=O)OC1C1=C2C(=O)c2ccccc2C1=O (stereo not given) |  |  |  | 4.14 µM |  | 4.09 |  | 32 |  | 21 µM |  | 6.42 µM |  |  |  | 19.7 µM |  |  | 23.7 | 
5 | CC1SC(c2cccc(Oc3ccccc3)c2)N(CCc2cccs2)C1=O (stereo not given) | 1.6 | 3.88 |  |  | 0.77 | 4.97 | 0.725 | 2.23 | 1.59 | 4.28 µM | 1.4 | 3 µM | 1.09 | 2.58 | 0.718 | 3.55 µM | 1.19 | 3.14 | 3.71 | 1.3
6 | C[N+](C)(C)CC(=O)N/N=C(\C(=O)Nc1ccc(Cl)cc1)C1C(=O)N(c2ccccc2)N=C1N (stereo not given) |  |  |  | > 100 µM |  | > 100 |  |  |  | > 100 µM |  | > 100 µM |  |  |  | > 100 µM |  |  | > 100 | 
7 | Cc1nc2c(=O)n(C)c(=O)nc-2n(-c2ccc(Cl)cc2)c1C |  |  |  |  |  |  |  | > 100 |  | > 100 µM |  | > 100 µM |  |  |  | > 100 µM |  |  | > 100 | 
8 | O=C1/C(=C/c2ccc([N+](=O)[O-])s2)Oc2ccc(Cl)cc21 |  |  | 0.375 | 1.11 µM | 0.371 | 2.47 | 0.999 | 2.98 | 0.372 | 26.9 µM | 0.206 | 0.49 µM | 0.231 | 0.586 | 0.592 | 1.82 µM | 0.457 | 1.55 | 1.74 | 0.486
9 | Cc1ccc(CCNC(=S)SCC(NC(=O)CCC(N)C(=O)O)C(=O)NCC(=O)O)cc1 (stereo not given) |  |  |  | 2.32 µM |  | 3.93 |  | 8.69 |  | 9.95 µM |  | 3.01 µM |  |  |  | 9.99 µM |  |  | 3.44 | 
10 | CCCCCCn1c(=N)n(CC(O)COc2cccc(C)c2)c2ccccc21 (stereo not given) | 3.67 | 12.1 |  |  | 2.39 | 6.16 | 1.78 | 3.78 | 3.71 | 12.8 µM | 1.82 | 4.04 µM | 2.2 | 6.44 | 2.89 | 11.5 µM | 1.83 | 3.56 | 12.2 | 2.54
11 | COc1ccc(/C=C(\NC(=O)c2ccccc2)c2nc3ccccc3[nH]2)cc1 |  |  |  |  |  | 83.1 |  |  |  |  |  | > 100 µM |  |  |  | 56.1 µM |  |  | 99.4 | 
12 | CCCCCCCCCCCCOC1C(C(COC2OC(C(O)CO)C3OC(C)(C)OC23)OC(=O)Nc2ccc([N+](=O)[O-])cc2)OC2OC(C)(C)OC21 (stereo not given) | 2.52 | 7.17 | 2.71 | 6.57 µM |  |  | 2.21 | 5.48 | 2.68 | 7.29 µM | 1.79 | 3.33 µM | 2.6 | 7.2 | 12.6 | 28.2 µM | 1.84 | 3.68 | 16.1 | 3.64
13 | COc1cc(C2C(C(=O)Nc3ccc(Cl)c(Cl)c3)=C(C)NC(C)=C2C(=O)Nc2ccc(Cl)c(Cl)c2)ccc1O |  |  |  | 12.8 µM |  | 26.9 |  | 34.5 |  | 42.6 µM |  | 29 µM |  |  |  | 27.5 µM |  |  | 34.5 | 
14 | O=C1c2ccccc2CC1C1(O)C(=O)Nc2c(Cl)cc(Cl)cc21 (stereo not given) |  |  |  | 85.8 µM |  | > 100 |  | > 100 |  | > 100 µM |  | > 100 µM |  |  |  | > 100 µM |  |  | > 100 | 
15 | COC(=O)c1cc(CNCCc2c[nH]c3ccccc23)on1 |  | > 100 |  | > 100 µM |  | > 100 |  | > 100 |  | > 100 µM |  | > 100 µM |  |  |  | > 100 µM |  |  | > 100 | 
16 | CCOc1ccccc1Nc1nc(C)c(C(=O)CC(=O)C(=O)Nc2ccccc2)s1 |  |  |  | > 100 µM |  | 78.3 |  | > 100 |  | > 100 µM |  | > 100 µM |  |  |  | > 100 µM |  |  | 88.6 | 
17 | Cn1c(N)cc(=O)nc1N |  | > 100 |  |  |  | > 100 |  | > 100 |  | > 100 µM |  | > 100 µM |  | > 100 |  | > 100 µM |  | > 100 | > 100 | 
18 | COc1cccc2c1C(=N)c1c(O)c3c(c(O)c1C2=O)C[C@@](O)(C(C)=O)C[C@@H]3OC1CC(N)C(O)C(C)O1 (stereo not given in full) | 0.018 | 0.0618 |  | 2.95 µM and 3.8 µM and 0.872 µM |  |  |  |  | 0.234 | 3.7 µM and 2.02 µM |  | 4.39 µM and 8.73 µM and 10.5 µM | 0.445 | 2.18 |  | 0.607 µM and 1.62 µM and 1.2 µM | 1.1 | 4.47 |  | 
19 | COc1ccc2nccc(C3OC(=O)N4CCC(=O)CC34)c2c1 (stereo not given) |  |  |  | > 100 µM |  | > 100 |  | > 100 |  | > 100 µM |  | > 100 µM |  |  |  | > 100 µM |  |  |  | 
20 | Cc1cn2cc(-c3ccncc3)nc2s1 |  |  |  |  |  | > 100 |  | > 100 |  | > 100 µM |  | > 100 µM |  |  |  | > 100 µM |  |  | > 100 | 
